We go through 2 compounds from patent US20200405727A1, “NEW ALK INHIBITOR SENOLYTIC DRUGS” (FONDAZIONE PER L'ISTITUTO ONCOLOGICO DI RICERCA (IOR), priority 2018, published 2020).

Structures are written as SMILES. Entries after “also recorded” stand apart in the source; their conditions may differ.

The subject of experiment [1] is MEFs in replicative senescence (RS). The experiment is described as follows: Replicative senescence assay in MEFs, Crystal Violet and SA-β-Gal. Format: cell-based, murine. The following applies: 10 μM, passage 8, Crystal Violet and SA-β-Gal. The method, then: (§1) The senolytic activity of Alectinib was validated in the context of the replicative senescence: assay which mimes the natural process of cell ageing due to the shortening of telomers. The MEFs were seeded in 10 cm2-plates (3×10^5 cells/plate). Every 3 days these cells were detached by means of trypsin, counted with Trypan Blu and plated in the same number. This process was performed for 8 passages before starting the senolytic treatment. At passages 8 and 9 the senescence of these cells was tested by means of the assay of SA-β-Gal (about 78% of senescent cells).
(§2) At passage 8, the non-senescent cells (NS) and cells in replicative senescence (RS) were seeded in a 96-well plate (5000 cells/well) and treated at different concentrations of Alectinib.

The next experiment deals with MEF Pten−/− (PICS). Put plainly: Senolytic screening in PICS (Docetaxel-induced senescent MEF Pten−/−), cell viability and SA-β-Gal. The class given is cell-based, murine. As to conditions: 10 μM, 48 hours, MEF Pten−/− pre-treated with Docetaxel 750 nM; versus ABT-263 positive control. The method, then: (§3) The platform which was devised in our laboratory is capable of identifying the senolytic compounds based upon two parameters: (1) the inhibition of the cell viability and (2) the removal of the positive cells to the assay of β-Galactosidase (SA-β-Gal, senescence marker). As positive control of the compounds at the test stage, we included ABT-263, previously identified as senolytic compound 2. At last, the senolytic potentiality of these compounds is tested on murine embryonic fibroblasts (MEF) Pten−/− and WT.
(§4) Technically the screening was performed in three passages; • Before treatment, to the culture medium of MEF (DMEM, 10%FBS, 5% P/S) Docetaxel is added, at the concentration of 750 nM for 48 hours. […] The cells were seeded in a 96-well plate at a density of 5000 cells per well. In the more external wells PBS was added, so as to be able to maintain the correct humidity inside the plate. • At last, 24 hours after the seeding of cells, the compounds of our study were added to the cells for 48 hours at the concentration of 10 μM. […]

The test system of another experiment is non-senescent (NS) MEFs. Put plainly: Replicative senescence assay in MEFs, non-senescent cells. Format: cell-based, murine. As to conditions: 10 μM, Crystal Violet and SA-β-Gal. The method, then: as §1, §2
For a further experiment, the system named is MEF wt (NS). Put plainly: Senolytic screening, specificity on non-senescent MEF wt. Format: cell-based, murine. As to conditions: 10 μM, 48 hours; versus ABT-263. The method, then: as §3, §4
The subject of another experiment is non-senescent (NS) IMR90. The experiment is described as follows: Replicative senescence assay in IMR90, non-senescent cells. Format: cell-based, human. As to conditions: 2.5 μM, Crystal Violet and SA-β-Gal. The method, then:
(§5) This assay was validated even with human fibroblasts, IMR90. Analogously to the protocol used for the MEFs, the IMR90 were seeded in 10 cm2-wide plates (3×10^5 cells/plate). Every 3 days these cells were detached by means of trypsin, counted with Trypan Blu and plated in the same number. This process was performed for 33 passages before starting the senolytic treatment. At passages 33 and 34 the senescence of these cells was tested by means of the assay of SA-β-Gal (about 78% of senescent cells).
(§6) At passage 33 non-senescent (NS) cells and cells in replicative senescence (RS) were seeded in a 96-well plate (5000 cells/well) and treated with different concentrations of Alectinib.

For another experiment, the system named is PC3. Put plainly: Removal of Palbociclib-induced senescent PC3 prostate cancer cells, Crystal Violet and SA-β-Gal. Format: cell-based, human. As to conditions: 5 μM for 48 hours, senescence induced with Palbociclib. The method, then:
(§7) Subsequently we tested the effects of Alectinib on cancer cell lines pre-treated with stimulator of senescence. In the specific case we used TrampC1 and PC3, two cell lines of prostate cancer, respectively murine and human lines. With the purpose of inducing the senescence in these cells, we used Palbociclib, a specific inhibitor of […] currently used in clinic in the treatment of breast cancer. Once the cells started senescence, Alectinib was added to the culture medium at the concentration of 5 μM for 48 hours.

For another experiment, the system named is TrampC1. The experiment is described as follows: Removal of Palbociclib-induced senescent TrampC1 prostate cancer cells, Crystal Violet and SA-β-Gal. The class given is cell-based, murine. As to conditions: 5 μM for 48 hours, senescence induced with Palbociclib. The method, then: as §7
The subject of experiment [2] is IMR90 in replicative senescence (RS). The experiment is described as follows: Replicative senescence assay in human fibroblasts IMR90, Crystal Violet and SA-β-Gal. The class given is cell-based. As to conditions: 2.5 μM, passage 33, Crystal Violet and SA-β-Gal. The method, then:
as §5, §6

The test system of a further experiment is MEF Pten−/−. Put plainly: Induction of senescence in MEF Pten−/− by Docetaxel. As to conditions: 750 nM for 48 hours. Format: cell-based, murine. The method, then:
(§8) Technically the screening was performed in three passages; • Before treatment, to the culture medium of MEF (DMEM, 10%FBS, 5% P/S) Docetaxel is added, at the concentration of 750 nM for 48 hours. […] The cells were seeded in a 96-well plate at a density of 5000 cells per well. In the more external wells PBS was added, so as to be able to maintain the correct humidity inside the plate. • At last, 24 hours after the seeding of cells, the compounds of our study were added to the cells for 48 hours at the concentration of 10 μM.

The next experiment has as its system MEF WT. The experiment is described as follows: Effect of Docetaxel on cell cycle of MEF WT. Format: cell-based, murine. The following applies: 750 nM for 48 hours. The method, then: as §8

`CCc1cc2c(cc1N1CCC(N3CCOCC3)CC1)C(C)(C)c1[nH]c3cc(C#N)ccc3c1C2=O` [Alectinib]: the “removal of senescent cells (RS MEFs)” value in experiment [1] was “capable of removing the senescent cells”. Moreover, in the experiment on MEF Pten−/− (PICS), the “removal of senescent cells (PICS)” value was “strong capability in killing the PICS cells; also recorded: effectiveness comparable to ABT-263”. For the same compound, the “impact on NS cells (MEFs)” value in the experiment on non-senescent (NS) MEFs is reported as “without killing the non-senescent (NS) cells; also recorded: without impacting on the cells NS”. In addition, in the experiment with MEF wt (NS), the “selectivity: impact on MEF wt (NS)” value was “non-senescent, NS, cells are kept vital; also recorded: more selective by impacting less seriously on MEF wt (NS)”. In addition, the “impact on NS cells (IMR90)” value in the experiment with non-senescent (NS) IMR90 is given as “without killing the non-senescent (NS) cells; also recorded: without impacting on the NS cells”. Besides, the “removal of senescent cells (PC3)” value in the experiment with PC3 was “capability of removing the senescent cells in both cell lines; also recorded: capable of removing successfully the senescent cells”. In the experiment on TrampC1, the “removal of senescent cells (TrampC1)” value is recorded as “capability of removing the senescent cells in both cell lines; also recorded: capable of removing successfully the senescent cells”. For the same compound, the “removal of senescent cells (RS IMR90)” value in [2] is listed as “capable of removing the senescent cells”.
In the case of `CC(=O)O[C@@]12CO[C@@H]1C[C@H](O)[C@@]1(C)C(=O)[C@H](O)C3=C(C)[C@@H](OC(=O)[C@H](O)[C@@H](NC(=O)OC(C)(C)C)c4ccccc4)C[C@@](O)([C@@H](OC(=O)c4ccccc4)[C@H]21)C3(C)C` [Docetaxel], the “senescence of MEF Pten−/−” value in the experiment on MEF Pten−/− came to 80%. Also, the “cell cycle of MEF WT” value in the experiment with MEF WT is “without altering the cell cycle of MEF WT”.
